Measurements as given in ChEMBL document CHEMBL4354881, “Optimization of Potent ATAD2 and CECR2 Bromodomain Inhibitors with an Atypical Binding Mode” (J Med Chem, 2020).

Legend:
[1] = Permeability of the compound by artificial lipid membrane-based method; format: ADME; settings: not told; read-out: permeability
[2] = target: T1, Chromatin remodeling regulator CECR2 (Homo sapiens, UniProt Q9BXF3); assay: Displacement of Alexa Fluor 647-labeled GSK tracer from FLAG-6His-Tev-fused CECR2 (424 to 543 residue) (unknown origin) measured after 15 mins by TR-FRET assay
[3] = target: Bromodomain-containing protein 4 (Homo sapiens, UniProt O60885, Y390A); assay: Displacement of Alexa Fluor 647-labeled ligand from BRD4 BD1 Y390A mutant (1 to 477 residue) (unknown origin) measured after 30 mins by TR-FRET assay
[4] = target: Bromodomain-containing protein 4 (Homo sapiens, UniProt O60885); assay: Displacement of Alexa Fluor 647-labeled ligand from BRD4 BD2 (unknown origin) measured after 30 mins by TR-FRET assay
[5] = target: T1, Chromatin remodeling regulator CECR2; assay: Inhibition of BSP-BODIPY binding to Nanoluc-tagged CECR2 (unknown origin) expressed in HEK293 cells measured after 4 to 6 hrs by NanoBRET assay; format: cell-based
[6] = target: T2, Bromodomain-containing protein 1 (Homo sapiens, UniProt O95696); assay: Binding affinity to human partial length BRD1 (E556 to A688 residues) expressed in bacterial expression system by BROMOscan assay
T2 sequence (O95696 whole entry): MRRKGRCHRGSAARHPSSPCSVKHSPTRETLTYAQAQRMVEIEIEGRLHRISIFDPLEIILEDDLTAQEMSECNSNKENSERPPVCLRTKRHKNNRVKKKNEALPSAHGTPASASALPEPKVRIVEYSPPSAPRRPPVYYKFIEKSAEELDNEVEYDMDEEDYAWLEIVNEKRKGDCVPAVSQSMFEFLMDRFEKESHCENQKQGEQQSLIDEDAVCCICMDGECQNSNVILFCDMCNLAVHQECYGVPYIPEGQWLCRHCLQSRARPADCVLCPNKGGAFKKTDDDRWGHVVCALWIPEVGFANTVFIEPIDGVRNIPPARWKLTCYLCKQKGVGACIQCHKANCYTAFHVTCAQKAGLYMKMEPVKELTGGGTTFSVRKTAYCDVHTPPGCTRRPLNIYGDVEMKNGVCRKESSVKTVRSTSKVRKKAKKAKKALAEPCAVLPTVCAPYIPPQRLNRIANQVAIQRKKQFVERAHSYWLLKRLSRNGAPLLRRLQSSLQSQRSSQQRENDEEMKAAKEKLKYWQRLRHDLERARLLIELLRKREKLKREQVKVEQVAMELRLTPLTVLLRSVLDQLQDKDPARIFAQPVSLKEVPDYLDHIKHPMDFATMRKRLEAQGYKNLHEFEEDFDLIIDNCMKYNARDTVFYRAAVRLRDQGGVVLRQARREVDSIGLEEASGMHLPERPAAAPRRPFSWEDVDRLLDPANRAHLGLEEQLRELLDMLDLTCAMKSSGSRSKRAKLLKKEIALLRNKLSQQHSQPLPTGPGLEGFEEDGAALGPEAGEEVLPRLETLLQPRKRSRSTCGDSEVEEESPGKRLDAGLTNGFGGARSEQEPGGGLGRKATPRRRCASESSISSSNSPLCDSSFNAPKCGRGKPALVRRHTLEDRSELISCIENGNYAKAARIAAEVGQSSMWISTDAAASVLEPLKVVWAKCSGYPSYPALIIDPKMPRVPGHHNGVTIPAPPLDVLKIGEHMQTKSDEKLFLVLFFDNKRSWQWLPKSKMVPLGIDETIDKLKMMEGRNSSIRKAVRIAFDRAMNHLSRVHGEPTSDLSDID

[7] = target: Transcription initiation factor TFIID subunit 1-like (Homo sapiens, UniProt Q8IZX4); assay: Binding affinity to human partial length TAF1L bromodomain 2 (Q1523 to D1654 residues) expressed in bacterial expression system by BROMOscan assay
[8] = target: T1, Chromatin remodeling regulator CECR2; assay: Binding affinity to human partial length CECR2 (P423 to D543 residues) expressed in bacterial expression system by BROMOscan assay
[9] = target: T3, ATPase family AAA domain-containing protein 2 (Homo sapiens, UniProt Q6PL18); assay: Binding affinity to human partial length ATAD2A (Q981 to R1108 residues) expressed in bacterial expression system by BROMOscan assay
T3 sequence (Q6PL18 whole entry): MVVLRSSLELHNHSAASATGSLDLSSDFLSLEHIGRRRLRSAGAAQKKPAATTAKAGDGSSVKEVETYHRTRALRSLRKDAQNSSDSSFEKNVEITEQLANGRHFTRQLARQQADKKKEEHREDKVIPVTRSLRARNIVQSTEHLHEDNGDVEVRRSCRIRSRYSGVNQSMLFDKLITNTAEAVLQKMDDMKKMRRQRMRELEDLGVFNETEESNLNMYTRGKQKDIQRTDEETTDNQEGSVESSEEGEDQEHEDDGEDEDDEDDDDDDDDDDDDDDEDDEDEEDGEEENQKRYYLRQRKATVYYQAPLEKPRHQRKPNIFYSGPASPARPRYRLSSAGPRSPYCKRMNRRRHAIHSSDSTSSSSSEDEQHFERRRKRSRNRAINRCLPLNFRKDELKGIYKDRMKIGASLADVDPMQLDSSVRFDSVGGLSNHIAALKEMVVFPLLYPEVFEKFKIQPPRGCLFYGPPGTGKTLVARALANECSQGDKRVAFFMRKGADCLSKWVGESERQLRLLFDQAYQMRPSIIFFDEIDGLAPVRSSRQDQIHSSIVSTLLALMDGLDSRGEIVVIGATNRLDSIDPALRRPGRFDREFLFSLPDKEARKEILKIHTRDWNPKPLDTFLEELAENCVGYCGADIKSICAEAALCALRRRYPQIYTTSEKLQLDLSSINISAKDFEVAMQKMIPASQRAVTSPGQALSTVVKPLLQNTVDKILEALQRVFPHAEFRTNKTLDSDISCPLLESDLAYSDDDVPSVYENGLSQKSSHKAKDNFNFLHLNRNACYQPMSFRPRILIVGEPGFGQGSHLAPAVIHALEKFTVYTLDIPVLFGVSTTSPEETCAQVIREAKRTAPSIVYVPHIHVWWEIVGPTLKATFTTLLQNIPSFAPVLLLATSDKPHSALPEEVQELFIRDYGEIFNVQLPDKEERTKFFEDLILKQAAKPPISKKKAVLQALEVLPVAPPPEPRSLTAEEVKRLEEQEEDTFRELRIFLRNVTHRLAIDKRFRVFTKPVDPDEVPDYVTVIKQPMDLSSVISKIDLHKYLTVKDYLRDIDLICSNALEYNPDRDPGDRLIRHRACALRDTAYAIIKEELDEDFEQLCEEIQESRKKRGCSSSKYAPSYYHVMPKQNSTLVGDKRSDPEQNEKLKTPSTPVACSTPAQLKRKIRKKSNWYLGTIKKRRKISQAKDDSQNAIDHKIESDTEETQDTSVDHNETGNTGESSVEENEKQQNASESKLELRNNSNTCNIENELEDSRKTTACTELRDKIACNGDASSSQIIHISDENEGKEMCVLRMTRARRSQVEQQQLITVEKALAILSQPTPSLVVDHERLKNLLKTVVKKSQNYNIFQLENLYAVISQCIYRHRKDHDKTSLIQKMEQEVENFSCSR

T1 sequence (Q9BXF3 whole entry, the tested form may be a part): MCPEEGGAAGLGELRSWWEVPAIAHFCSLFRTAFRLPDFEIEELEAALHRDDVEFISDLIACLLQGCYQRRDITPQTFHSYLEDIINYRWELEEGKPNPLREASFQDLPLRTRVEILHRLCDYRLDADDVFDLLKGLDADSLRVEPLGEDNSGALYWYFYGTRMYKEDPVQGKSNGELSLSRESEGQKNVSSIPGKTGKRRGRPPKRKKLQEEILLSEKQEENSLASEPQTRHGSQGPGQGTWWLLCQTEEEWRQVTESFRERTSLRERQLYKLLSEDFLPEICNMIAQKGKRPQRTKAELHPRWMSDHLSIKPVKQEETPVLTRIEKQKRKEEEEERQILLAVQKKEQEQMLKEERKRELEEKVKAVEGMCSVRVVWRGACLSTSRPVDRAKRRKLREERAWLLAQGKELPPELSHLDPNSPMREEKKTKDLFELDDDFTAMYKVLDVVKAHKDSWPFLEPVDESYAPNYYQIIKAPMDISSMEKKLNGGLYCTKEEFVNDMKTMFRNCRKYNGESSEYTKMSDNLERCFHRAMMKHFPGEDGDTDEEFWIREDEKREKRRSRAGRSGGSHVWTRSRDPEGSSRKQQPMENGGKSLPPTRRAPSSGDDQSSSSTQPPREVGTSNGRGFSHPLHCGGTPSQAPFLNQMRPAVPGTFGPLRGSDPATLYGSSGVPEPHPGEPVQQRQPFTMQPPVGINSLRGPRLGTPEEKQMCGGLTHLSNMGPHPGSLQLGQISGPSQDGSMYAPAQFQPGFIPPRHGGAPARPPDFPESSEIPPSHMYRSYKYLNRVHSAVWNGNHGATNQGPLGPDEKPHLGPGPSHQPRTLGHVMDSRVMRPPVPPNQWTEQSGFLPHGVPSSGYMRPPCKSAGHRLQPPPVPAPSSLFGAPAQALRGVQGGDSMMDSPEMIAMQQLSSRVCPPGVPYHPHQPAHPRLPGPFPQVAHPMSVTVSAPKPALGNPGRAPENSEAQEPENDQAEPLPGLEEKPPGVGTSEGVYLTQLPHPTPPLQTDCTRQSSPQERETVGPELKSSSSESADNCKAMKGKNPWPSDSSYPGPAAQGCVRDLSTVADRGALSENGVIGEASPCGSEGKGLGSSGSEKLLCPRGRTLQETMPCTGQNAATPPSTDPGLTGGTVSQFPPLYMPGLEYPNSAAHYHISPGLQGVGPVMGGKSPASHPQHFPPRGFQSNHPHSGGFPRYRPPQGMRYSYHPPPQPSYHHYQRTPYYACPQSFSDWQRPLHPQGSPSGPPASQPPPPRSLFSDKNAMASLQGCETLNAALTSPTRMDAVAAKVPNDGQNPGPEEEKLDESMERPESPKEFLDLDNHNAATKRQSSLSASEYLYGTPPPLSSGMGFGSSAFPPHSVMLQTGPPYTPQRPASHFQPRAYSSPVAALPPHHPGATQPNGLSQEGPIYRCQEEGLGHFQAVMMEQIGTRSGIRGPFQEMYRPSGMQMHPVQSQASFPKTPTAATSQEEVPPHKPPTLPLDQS
Chain of Transcription initiation factor TFIID subunit 1-like (Q8IZX4 whole entry, the tested form may be a part): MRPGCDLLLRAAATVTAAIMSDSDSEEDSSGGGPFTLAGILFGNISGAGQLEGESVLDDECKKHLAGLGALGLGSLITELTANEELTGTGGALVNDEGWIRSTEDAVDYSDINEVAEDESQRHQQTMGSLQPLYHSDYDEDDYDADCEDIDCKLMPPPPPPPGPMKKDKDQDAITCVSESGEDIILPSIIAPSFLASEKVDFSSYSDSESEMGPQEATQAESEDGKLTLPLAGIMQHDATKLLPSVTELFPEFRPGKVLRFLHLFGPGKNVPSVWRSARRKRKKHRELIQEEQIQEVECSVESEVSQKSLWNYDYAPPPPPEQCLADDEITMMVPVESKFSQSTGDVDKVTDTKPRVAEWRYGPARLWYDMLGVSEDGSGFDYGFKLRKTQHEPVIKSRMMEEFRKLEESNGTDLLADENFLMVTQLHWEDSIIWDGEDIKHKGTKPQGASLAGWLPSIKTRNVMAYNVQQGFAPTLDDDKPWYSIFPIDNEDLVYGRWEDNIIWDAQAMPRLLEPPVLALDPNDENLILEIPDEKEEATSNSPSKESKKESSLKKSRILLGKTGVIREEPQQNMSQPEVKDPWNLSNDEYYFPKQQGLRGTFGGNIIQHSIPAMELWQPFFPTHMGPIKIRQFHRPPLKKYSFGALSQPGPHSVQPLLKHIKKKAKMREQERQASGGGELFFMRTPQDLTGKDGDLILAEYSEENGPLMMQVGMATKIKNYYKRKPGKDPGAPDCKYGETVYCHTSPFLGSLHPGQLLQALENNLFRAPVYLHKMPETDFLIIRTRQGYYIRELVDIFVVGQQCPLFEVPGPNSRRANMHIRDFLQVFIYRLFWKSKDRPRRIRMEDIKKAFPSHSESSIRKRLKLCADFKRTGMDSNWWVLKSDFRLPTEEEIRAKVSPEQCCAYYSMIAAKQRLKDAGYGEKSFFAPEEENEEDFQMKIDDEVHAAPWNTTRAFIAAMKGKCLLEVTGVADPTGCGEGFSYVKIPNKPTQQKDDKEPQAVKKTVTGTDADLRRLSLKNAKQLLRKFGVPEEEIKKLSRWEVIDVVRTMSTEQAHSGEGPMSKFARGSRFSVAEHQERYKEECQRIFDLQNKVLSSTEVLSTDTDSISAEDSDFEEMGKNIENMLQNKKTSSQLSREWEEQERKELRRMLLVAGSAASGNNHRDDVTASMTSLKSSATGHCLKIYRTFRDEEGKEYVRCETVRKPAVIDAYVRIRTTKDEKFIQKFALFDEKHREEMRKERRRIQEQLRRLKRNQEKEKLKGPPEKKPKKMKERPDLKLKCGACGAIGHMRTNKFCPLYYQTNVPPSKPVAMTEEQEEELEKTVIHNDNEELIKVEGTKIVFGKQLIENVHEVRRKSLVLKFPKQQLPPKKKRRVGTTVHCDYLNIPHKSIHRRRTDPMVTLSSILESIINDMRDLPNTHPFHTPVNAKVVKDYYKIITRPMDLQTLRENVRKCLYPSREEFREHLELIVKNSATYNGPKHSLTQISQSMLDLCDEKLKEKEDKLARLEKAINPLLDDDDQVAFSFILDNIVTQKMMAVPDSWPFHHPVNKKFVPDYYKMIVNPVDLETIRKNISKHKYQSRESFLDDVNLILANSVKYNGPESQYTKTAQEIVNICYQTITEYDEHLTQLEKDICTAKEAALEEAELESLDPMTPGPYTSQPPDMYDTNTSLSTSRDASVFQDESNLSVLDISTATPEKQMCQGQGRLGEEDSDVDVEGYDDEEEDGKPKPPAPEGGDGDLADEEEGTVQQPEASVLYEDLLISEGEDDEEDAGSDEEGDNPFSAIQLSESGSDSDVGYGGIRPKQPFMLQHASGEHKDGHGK

Papp [1]: 9.9 ×10⁻⁶ cm/s
IC50 [2]: 316 nM
IC50 [3]: > 50100 nM
IC50 [4]: 12600 nM
IC50 [5]: 251 nM
Kd [6]: 126 nM
Kd [7]: 25.1 nM
Kd [8]: 25.1 nM
Kd [9]: 10 nM
SMILES: C[C@H]1CCN(S(=O)(=O)c2cc(NC(=O)CN3C(=O)N[C@@](C)(C4CC4)C3=O)ccc2Br)C1
